Data set [1] concerns the target Cytochrome P450 Enzyme 2C19 (Homo sapiens, UniProt P33261). Description: Extracellular cytochrome P450 inhibition, CYP2C19. The method, then:
(§1) In general, microsomes at protein concentrations as defined in Table 12 were mixed with buffer (100 mM KH2PO4, pH 7.4), MgCl2 (6 mM)) and substrate, and were kept on ice. Aliquots of this mixture (89 μL) were delivered to each well of a 96-well polypropylene plate which contained an aliquot of inhibitor (1 μL) in acetonitrile:water (1:1). Final solvent concentrations were less than 1% (v/v). Incubations were initiated with the addition of 10 μL β-NADPH (10 mM stock) to a final volume of 100 μL. […] Samples were centrifuged at 4° C., and supernatant was transferred for LC-MS/MS analysis.

The nature of a further data set: in vivo. The settings on record: Hartley, guinea pig, plasma, po.
A short description of data set [2]: Properties of the amorphous phase. Type of data set: physicochemical. As to conditions: from 0% to 90% relative humidity.
The target of a further data set is T1, DP2 receptor (Homo sapiens, UniProt Q9Y5Y4).
T1 sequence (Q9Y5Y4 1-395): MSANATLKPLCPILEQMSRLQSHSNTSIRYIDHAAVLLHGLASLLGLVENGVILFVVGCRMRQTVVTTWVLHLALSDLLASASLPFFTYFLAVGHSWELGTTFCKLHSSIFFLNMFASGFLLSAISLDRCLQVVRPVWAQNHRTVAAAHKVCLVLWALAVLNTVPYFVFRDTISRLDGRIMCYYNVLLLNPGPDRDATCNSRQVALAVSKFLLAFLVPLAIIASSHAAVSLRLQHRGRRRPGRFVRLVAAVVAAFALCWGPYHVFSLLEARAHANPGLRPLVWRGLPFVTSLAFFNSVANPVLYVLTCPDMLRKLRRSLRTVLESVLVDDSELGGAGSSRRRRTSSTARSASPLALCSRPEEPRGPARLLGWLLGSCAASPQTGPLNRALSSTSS
Put plainly: Phase I study, ex vivo PGD2-induced blood eosinophil shape change (ESC). Type of data set: in vivo. The arrangement: endogenous in cells; host or cells: eosinophils in human whole blood. As to conditions: humans.

A short description of data set [3]: Canine studies of formulations. It counts as in vivo. As to conditions: oral formulations.
For data set [4], the system named is guinea pig OVA model of allergen-induced asthma. Description: Guinea pig allergic asthma model. Type of data set: in vivo. As to conditions: 3 mg/kg and 30 mg/kg b.i.d. PO, 24 hours after aerosolized OVA challenge. The method, then:
Aerosolized OVA challenge to OVA-primed guinea pigs causes a significant influx of cells into the bronchoalveolar lavage fluid taken 24 hours after challenge. This increase is primarily from influx of eosinophils and neutrophils with a small proportion from macrophages.

For data set [5], the system named is mouse model of ovalbumin (OVA)-induced allergic rhinitis. Put plainly: Mouse allergic rhinitis model. Type of data set: in vivo. The settings on record: daily 10 mg/kg PO, OVA-primed and challenged mice.
Data set [6] has as its system DK-PGD2-induced peripheral blood leukocyte influx. Description: Guinea pig IV-DKPGD2-induced peripheral blood leukocyte influx. Type of data set: in vivo. The settings on record: for ED50: Cavia porcellus, Leukocyte, oral. The method, then: Methods were adapted from those detailed Shichijo et al., 2003, Journal of Pharmacology and Experimental Therapeutics, 307:518-525. Male Hartley guinea pigs were immunized with ovalbumin (OVA) on day 0 by intraperitoneal (IP) injection of 1 ml of a 100 μg/ml solution in Imject Alum. They were then used in the DK-PGD2 procedure between days 14 and 21. Subjects were randomly assigned to receive either vehicle (0.5% methyl cellulose, 4 ml/kg, oral (PO)) or one of three to four doses of test compound. Two hours or eighteen hours after dosing, animals were anesthetized with ketamine and challenged with DK-PGD2 (1 mg/kg, IV). Thirty minutes after IV administration, blood was collected via the marginal ear vein into EDTA tubes for cell analysis. 10 μl blood was lysed in 190 μl water followed by a further 20-fold dilution in PBS. A 10 μl fraction was mixed with equal parts trypan blue and loaded on a hemocytometer. Cells were visualized at a magnification of 40× using a LabPro light microscope and totals counted and recorded. Cells are expressed as total cells×10^8 per ml of blood. Inhibition of this effect by select compounds is determined statistically using Graphpad prism.

Data set [7] has as its target T2, Cytochrome P450 Enzyme 1A2 (Homo sapiens, UniProt P05177).
T2 sequence (P05177 1-516): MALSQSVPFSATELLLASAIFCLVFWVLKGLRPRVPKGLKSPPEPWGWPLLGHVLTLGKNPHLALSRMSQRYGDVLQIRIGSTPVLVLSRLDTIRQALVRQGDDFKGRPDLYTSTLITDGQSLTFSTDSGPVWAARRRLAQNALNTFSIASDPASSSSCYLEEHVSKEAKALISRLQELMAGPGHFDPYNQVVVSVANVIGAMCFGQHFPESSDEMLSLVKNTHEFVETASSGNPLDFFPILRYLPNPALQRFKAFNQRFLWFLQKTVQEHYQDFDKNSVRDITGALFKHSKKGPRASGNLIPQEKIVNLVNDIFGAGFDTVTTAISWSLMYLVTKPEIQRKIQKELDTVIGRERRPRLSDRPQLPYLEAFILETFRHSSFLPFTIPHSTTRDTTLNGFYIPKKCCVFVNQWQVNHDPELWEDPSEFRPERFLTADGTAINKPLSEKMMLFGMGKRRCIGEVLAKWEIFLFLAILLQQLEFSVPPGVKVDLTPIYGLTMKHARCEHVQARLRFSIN
The protocol:
as §1

The target of data set [8] is Cytochrome P450 Enzyme 3A4 (Homo sapiens, UniProt P08684). The settings on record: microsomes. The protocol:
as §1

Data set [9] concerns the target Cytochrome P450 Enzyme 2C9 (Homo sapiens, UniProt P11712). Description: Extracellular cytochrome P450 inhibition, CYP2C9. The settings on record: diclofenac 4′-hydroxylation, microsomes. It counts as in vitro ADME. The method, then:
as §1

The target in data set [10] is Cytochrome P450 Enzyme 2D6 (Homo sapiens, UniProt P10635). Description: Extracellular cytochrome P450 inhibition, CYP2D6. The settings on record: dextromethorphan O-demethylation, microsomes. It counts as in vitro ADME. The method, then: as §1
Cytochrome P450 Enzyme 2D6, sequence (P10635 whole entry): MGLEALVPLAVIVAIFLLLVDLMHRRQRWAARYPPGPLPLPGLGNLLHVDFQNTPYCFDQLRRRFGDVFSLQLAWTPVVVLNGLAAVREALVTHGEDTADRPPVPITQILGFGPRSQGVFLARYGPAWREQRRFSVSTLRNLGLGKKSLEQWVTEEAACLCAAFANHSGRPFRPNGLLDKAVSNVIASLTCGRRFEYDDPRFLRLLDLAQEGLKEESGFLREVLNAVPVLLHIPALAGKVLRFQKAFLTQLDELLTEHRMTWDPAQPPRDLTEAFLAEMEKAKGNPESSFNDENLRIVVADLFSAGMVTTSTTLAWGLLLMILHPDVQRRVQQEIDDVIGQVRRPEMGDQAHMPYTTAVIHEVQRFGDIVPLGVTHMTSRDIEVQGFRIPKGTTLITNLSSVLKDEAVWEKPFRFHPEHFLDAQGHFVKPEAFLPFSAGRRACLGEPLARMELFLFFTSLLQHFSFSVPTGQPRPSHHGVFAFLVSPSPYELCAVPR
The conditions of data set [11]: Compound 1 2 mg/kg intravenous, semi-quantitative.
Protocol: Rats with surgically placed bile duct and jugular vein cannula were purchased from Charles River Laboratories and allowed to acclimate for 2 days. […] Bile was collected at time-points 0-2, 2-5, 5-8, and 8-24 hrs post-dose in 8 mL scintillation vials and stored at −40° C. until LC-MS/MS analysis.
Analyses were performed using a Waters YMC ODS-AQ column (2.1×150 mm; 3 μm) linked to a Shimadzu LC-10AD VP with SCL-10A VP system controller. Tandem mass spectrometric (MS/MS) detection was carried out on a Sciex ABI3200 QTrap in the positive ion mode (ESI) by multiple reaction monitoring, precursor ion scan, and enhanced product ion scan. The mobile phases contained 10 mM ammonium acetate in water with 0.05% formic acid (solvent A) and 10 mM ammonium acetate in 50% acetonitrile/50% methanol with 0.05% formic acid (solvent B). […] Analytes were separated using a linear gradient as follows:
Analytes were separated using a linear gradient as follows:

As a reminder, the pIC50 is −log10 of the IC50, conventionally taken in molar units. A lower pIC50 goes with a large IC50. A word on the inhibition: it is the drop in the measured response relative to a control, in per cent. A lower inhibition goes with a response near the control. What is called ED50 is the dose at which the effect has come halfway, by size or by number of responders.

pIC50: −log10 of the molar value. Where two headings read alike, the source gives them in different places. Where only a bound is given, the exact number is not on record here.

Cytochrome P450 Enzyme 2C19, sequence (P33261 whole entry): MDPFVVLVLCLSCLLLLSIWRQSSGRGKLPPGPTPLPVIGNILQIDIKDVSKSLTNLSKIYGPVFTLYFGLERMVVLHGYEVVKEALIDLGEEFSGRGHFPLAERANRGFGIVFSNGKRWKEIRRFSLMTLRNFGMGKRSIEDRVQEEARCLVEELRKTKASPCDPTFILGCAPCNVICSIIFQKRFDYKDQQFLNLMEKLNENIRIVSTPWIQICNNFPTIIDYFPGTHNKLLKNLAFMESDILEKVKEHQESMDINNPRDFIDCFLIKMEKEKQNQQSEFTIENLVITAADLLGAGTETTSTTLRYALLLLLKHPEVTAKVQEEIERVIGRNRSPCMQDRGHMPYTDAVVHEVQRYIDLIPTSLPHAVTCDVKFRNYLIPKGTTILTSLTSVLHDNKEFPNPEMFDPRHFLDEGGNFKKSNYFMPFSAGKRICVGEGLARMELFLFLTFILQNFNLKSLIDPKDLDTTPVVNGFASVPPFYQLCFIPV
Cytochrome P450 Enzyme 3A4, sequence (P08684 whole entry): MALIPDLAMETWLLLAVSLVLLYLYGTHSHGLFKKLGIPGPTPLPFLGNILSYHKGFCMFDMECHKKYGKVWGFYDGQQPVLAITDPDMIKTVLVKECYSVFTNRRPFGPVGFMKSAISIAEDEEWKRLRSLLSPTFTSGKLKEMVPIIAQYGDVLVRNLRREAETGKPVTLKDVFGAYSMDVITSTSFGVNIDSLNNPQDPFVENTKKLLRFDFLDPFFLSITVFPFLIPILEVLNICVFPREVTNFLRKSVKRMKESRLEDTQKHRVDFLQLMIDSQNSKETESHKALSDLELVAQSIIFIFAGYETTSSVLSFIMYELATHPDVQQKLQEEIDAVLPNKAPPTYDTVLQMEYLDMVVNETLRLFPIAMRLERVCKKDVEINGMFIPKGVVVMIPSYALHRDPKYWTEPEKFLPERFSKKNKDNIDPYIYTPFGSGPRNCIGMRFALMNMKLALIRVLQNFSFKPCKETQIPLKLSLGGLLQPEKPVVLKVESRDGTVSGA
Cytochrome P450 Enzyme 2C9, sequence (P11712 whole entry): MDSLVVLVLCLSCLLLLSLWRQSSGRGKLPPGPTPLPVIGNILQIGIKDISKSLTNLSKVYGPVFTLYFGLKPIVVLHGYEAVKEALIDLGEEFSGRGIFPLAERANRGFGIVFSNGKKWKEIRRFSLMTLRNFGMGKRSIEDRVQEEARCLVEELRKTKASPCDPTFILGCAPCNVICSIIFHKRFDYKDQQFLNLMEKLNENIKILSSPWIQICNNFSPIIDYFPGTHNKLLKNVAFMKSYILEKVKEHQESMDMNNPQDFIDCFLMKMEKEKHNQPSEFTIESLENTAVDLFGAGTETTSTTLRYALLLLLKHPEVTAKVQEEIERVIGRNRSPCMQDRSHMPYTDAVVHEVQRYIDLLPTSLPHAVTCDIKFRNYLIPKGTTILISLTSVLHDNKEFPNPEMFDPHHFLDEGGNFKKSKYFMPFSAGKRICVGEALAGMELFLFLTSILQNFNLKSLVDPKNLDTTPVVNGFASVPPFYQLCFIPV
Protocol for DP2 receptor: Blood is drawn from consenting human volunteers in EDTA vacutainer tubes and used within 1 hr of draw. […] The blood is vortexed and incubated at 37° C. for 5 minutes. 5 μl of 1 μM PGD2 in PBS is added for a final concentration of 50 nM and the tubes briefly vortexed. The reactions are incubated for exactly 5 minutes at 37° C. and then terminated by placing the tubes on ice and immediately adding 250 μl of ice-cold 1:4 diluted Cytofix (BD Biosciences). The reactions are transferred to 12×75 mM polystyrene round bottom tubes and the red blood cells lysed by the addition of 3 ml ammonium chloride lysing solution (150 mM NH4Cl, 10 mM KHCO3, 0.1 mM EDTA disodium salt) and incubation at room temperature for 15 minutes. […] The cells are resuspended in 0.2 ml of ice-cold 1:4 diluted Cytofix (BD Biosciences) and analyzed on a FACSCalibur (BD Biosciences) within 2 hours. […] The specific change in shape induced by PGD2 was calculated as the difference between the percentage of high forward scatter eosinophils in the presence and absence of PGD2.
At varying times after dosing blood is drawn for both pharmacokinetic analyses of drug concentration in blood, and also for PGD2 challenge and eosinophil shape change determination. The extent of receptor blockage is determined from the relationship between drug blood concentration and percentage inhibition of eosinophil shape change.

For the compound `CCC1(c2ccccc2)C(=O)NC(=O)N(Cc2ccccc2)C1=O` (single isomer, unassigned; (-)) [(-)-N-3-benzyl-phenobarbital, reference compound], the negative logarithm of the IC50 (pIC50) in data set [1] (mephenytoin 4′-hydroxylation, microsomes) is 5.92.
Take `CCN(Cc1cc(C(F)(F)F)ccc1-c1cc(CC(=O)[O-])ccc1OC)C(=O)NCc1ccccc1.[Na+]` [Compound 2, [2′-(3-benzyl-1-ethyl-ureidomethyl)-6-methoxy-4′-trifluoromethyl-biphenyl-3-yl]-acetic acid, sodium salt]: the concentration at 2.5 h in the data set “in vivo” (0.1 mg/kg) worked out at 22 nM; in the data set “in vivo” (1 mg/kg), 61 nM; in “in vivo” (10 mg/kg), 222 nM; in the data set “in vivo” (30 mg/kg), 727 nM. Moreover, the “hygroscopicity, weight change” value in [2] was determined as 36%. Further, on DP2 receptor (at 24 hours, 100 mg dose), the inhibition at 100 mg lay in the range of 75 to 90%. Also, at DP2 receptor (at Cmax, doses equal to or greater than 30 mg), the “inhibition of the PGD2-induced eosinophil shape change (ESC)” value was 80-100%. Also, the absorption result in [3] was “rapidly absorbed in the stomach and upper gastrointestinal tract”. Further, the “cellular influx into bronchoalveolar lavage fluid” value in data set [4] was “dose-dependently reduced total cellular influx including eosinophils and neutrophils”. Further, the nasal rubs entry in data set [5] is “trend toward a decrease”. Besides, the sneezing behavior result in [5] was “significantly reduced sneezing behavior”. Further, the “associated EC50 (plasma concentration)” value in data set [6] (2 hr study) is 0.055 µM. Besides, the “inhibition of DK-PGD2-induced peripheral blood leukocyte increase” value was found to be 21% in data set [6] (2 hr study, oral 0.1 mg/kg); 59% in data set [6] (2 hr study, oral 1 mg/kg); 62% in data set [6] (2 hr study, oral 10 mg/kg); 80% in data set [6] (2 hr study, oral 30 mg/kg). Also, the “observed EC50” value in data set [6] (18 hr study) is below 0.04 µM. Moreover, the “inhibition of peripheral blood leukocyte numbers” value in [6] (18 hr study, oral 1 mg/kg) was found to be 0%; in data set [6] (18 hr study, oral 10 mg/kg), 29%; in data set [6] (18 hr study, oral 30 mg/kg), 50%; in [6] (18 hr study, oral 100 mg/kg) it was 77%. Further, the ED50 in [6] (2 hr study, read-out: ED50) was 0.85 mg/kg; in [6] (18 hr study, read-out: calculated ED50), 30 mg/kg. For the same compound, the pIC50 in [7] was below 4.30; in [8] (IC50, midazolam 1-hydroxylation), 4.40; in data set [8] (IC50, testosterone 6β-hydroxylation) it was below 4.30; in data set [9] it was below 4.30; in data set [1], below 4.30; in [10], below 4.30.
Take `CCN(Cc1cc(C(F)(F)F)ccc1-c1cc(CC(=O)O[C@@H]2O[C@H](C(=O)O)[C@@H](O)[C@H](O)[C@H]2O)ccc1OC)C(=O)NCc1ccccc1` [Compound M2, acyl gluconuride of [2′-(3-benzyl-1-ethyl-ureidomethyl)-6-methoxy-4′-trifluoromethyl-biphenyl-3-yl]-acetic acid]: the “metabolite in rat bile, peak area relative to parent” value in [11] is 273 % of parent.

The values are drawn from US9572785B2, “DP2 antagonist and uses thereof” (Brickell Biotech, Inc., priority 2009, dated 2017).
